Test results from publication PMC12567096, “An Efficacy- and In Vivo Exposure-Oriented Integrated Study to Investigate the Effective Components of Qishen Granule” (Pharmaceuticals, 2025).

Legend:
OGD/R-induced H9c2 cells = test: Protective effect on OGD/R-induced H9c2 cells (CCK-8 cell viability); format: cell-based, rat; details: for H9c2 cell survival after OGD/R (in words): 1, 10, 25, 50 and 100 μM prior to OGD/R, vs model group; for EC50: protective effect against OGD/R injury, H9c2 cell viability
Method: (§1) Rat myocardial H9c2 cells (purchased from China Infrastructure of Cell Line Resources, Institute of Basic Medical Sciences, Chinese Academy of Medical Sciences) were cultured in DMEM supplemented with 10% fetal bovine serum (FBS), Penicillin (100 U/mL), and Streptomycin (100 μg/mL) at 37 °C under a humidified atmosphere of 5% CO2 and 95% air. For OGD/R treatment, H9c2 cells were cultured in glucose-free DMEM under hypoxic conditions (95%N2 + 5%CO2) for 4 h at 37 °C followed by complete medium under normal conditions with air (95%) and CO2 (5%) for 2 h. A control group was maintained under normal culture conditions (with glucose-containing DMEM and 5% CO2) without undergoing OGD/R treatment. CCK8 was used to assess cell viability. After treatment, H9c2 cells were seeded in 96-well plates, with each well supplemented with 10 μL of CCK-8 solution and then incubated for 1 h. Finally, the absorbance at 450 nm was detected by a microplate reader (Model […] 200 PRO, TECAN, Grodig, Austria).
(§2) When evaluating the cytotoxicities of the absorbed compounds, the H9c2 cells were seeded in 96-well plates at a density of 1 × 10^4 cells/well; when cells reached 80% confluence, they were treated with 25 and 50 μM of the 24 analytes to screen the non-toxic concentration ranges. Afterward, the protective effects were verified by assessing the cell viability when treating with different concentrations (1, 10, 25, 50, and 100 μM) of the analytes prior to OGD/R treatment.

[1] = Concentrations of 24 analytes in QSG treated plasma (Table S5); details: for Concentration: QSG treated plasma, n = 5
[2] = Pharmacokinetic study in rats after oral administration of QSG; details: for AUCi: exposure (AUC0→∞) of the component in rats after oral QSG, as used for ECI; for Oral relative bioavailability: exposure level (AUC0→∞) compared with the dosage of each compound in QSG; for Absorption efficiency / bioavailability (in words): from Table S12, rats
Method: Ion source parameters were set as follows: temperatures of drying gas and sheath gas were 300 °C and 300 °C, flow rates of drying gas and sheath gas were 7 L/min and 11 L/min, the nebulizer was set at 35 psig, capillary voltage was 3500 V (−), and nozzle voltage was 2000 V (−). […] Chromatographic separations were conducted on a ZORBAX Eclipse Plus C18 column (3.0 × 50 mm, 1.8 μm, Agilent Technologies, California, USA). The mobile phase was composed of 0.1% aqueous FA (A, (v/v)) and 0.1% formic acid methanol (B), the flow rate was set at 0.5 mL/min, and the column oven was maintained at 40 °C.
Protein precipitation was carried out for each time point for plasma samples, calibration samples, or QC samples by introducing four volumes of acetonitrile containing 400 ng/mL of icariin. Then, 10 μL 10% aqueous ascorbic acid (v/v) was spiked into each sample to prevent the oxidation of phenolic compounds. […] An aliquot (450 μL) of the supernatant was transferred and dried under nitrogen vacuum.
The pharmacokinetic parameters were calculated by DAS software (version 2.0) for a non-compartmental analysis.

H9c2 cells = test: Cytotoxicity on H9c2 cells (CCK-8); format: cell-based, rat
Method: as §1
as §2, with “they were treated with 25 and 50 μM of the 24 analytes to screen the non-toxic concentration ranges.” left out

[3] = rat plasma, single oral 7 g/kg QSG, n = 6
[4] = Sprague Dawley, rat, plasma, oral, 7 g/kg
[5] = Sprague Dawley, rat, plasma, po, 7 g/kg

Row | SMILES | H9c2 cell survival after OGD/R (in words) (OGD/R-induced H9c2 cells) | Concentration ([1]; 0.17 h) | Concentration ([1]; 0.5 h) | Concentration ([1]; 1 h) | Concentration ([1]; 2 h) | Concentration ([1]; 4 h) | Concentration ([1]; 8 h) | Concentration ([1]; 12 h) | AUC0→∞ ([2]; Table S12, rats, oral QSG) | AUCi [2] | Oral relative bioavailability [2] | Absorption efficiency / bioavailability (in words) ([2]; oral QSG) | AUC0→t [2, 3] | AUC0→∞ [2, 3] | Cmax [2, 3] | MRT [2, 3] | T1/2 [2, 3] | Tmax [2, 3] | Inhibition rate (H9c2 cells; 25 μM, H9c2 cells, n=3) | Inhibition rate (H9c2 cells; 50 μM, H9c2 cells, n=3) | other results
1 | O=C(/C=C/c1ccc(O)c(O)c1)O[C@H]1[C@H](O)C[C@](O)(C(=O)O)C[C@H]1O [Cryptochlorogenic acid] | significantly improve H9c2 cell survival rates | 95.627 ± 23.461 ng/mL | 135.955 ± 20.918 ng/mL | 54.572 ± 22.599 ng/mL | 29.505 ± 18.460 ng/mL | 18.424 ± 6.281 ng/mL | 21.857 ± 6.099 ng/mL | 12.189 ± 3.932 ng/mL | 576.2 ng·h/mL | 576.2 | 0.026% | relatively higher absorption rates | 532.2 ± 41.45 ng·h/mL | 576.2 ± 58.15 ng·h/mL | 184.1 ± 57.43 ng/mL | 8.933 ± 0.5290 h | 10.84 ± 2.625 h | 0.364 ± 0.076 h | -16.2 ± 4.2% | -3.4 ± 0.2% | EC50 (OGD/R-induced H9c2 cells): 1.13 µM; Concentration ([1]; 0.08 h): 17.855 ± 11.504 ng/mL; Inhibition rate (H9c2 cells; 100 μM, H9c2 cells, n=3): 5.2 ± 0.4%; Effect on H9c2 cell viability / cytotoxicity (in words) (H9c2 cells; CCK-8, compared to the control group): significantly enhanced cell viabilities
2 | CC(C)(O)[C@@H]1CC[C@](C)([C@H]2[C@@H](O)C[C@@]3(C)[C@@H]4C[C@H](O[C@@H]5O[C@H](CO)[C@@H](O)[C@H](O)[C@H]5O)[C@H]5C(C)(C)[C@@H](O[C@@H]6OC[C@@H](O)[C@H](O)[C@H]6O)CC[C@@]56C[C@@]46CC[C@]23C)O1 [Astragaloside IV] | significantly improve H9c2 cell survival rates | 7.10 ± 5.941 ng/mL | 8.655 ± 2.757 ng/mL | 3.017 ± 3.507 ng/mL | 3.783 ± 2.015 ng/mL | 0.710 ± 1.991 ng/mL | 1.337 ± 1.728 ng/mL | 2.200 ± 2.015 ng/mL | 144.9 ng·h/mL | 144.9 | 0.107% | relatively higher absorption efficiency | 55.94 ± 26.16 ng·h/mL | 144.9 ± 101.2 ng·h/mL | 12.06 ± 2.010 ng/mL | 6.104 ± 3.716 h | 14.87 ± 9.060 h | 0.250 ± 0.0920 h | -6.7 ± 7.1% | 7.0 ± 2.1% | Protective effects on OGD/R-induced H9c2 cells (in words) (OGD/R-induced H9c2 cells; at 50 and 100 μM): significant protective effects; Shape of the plasma concentration–time curve (in words) ([2]; rats, oral QSG): Double peaks; Inhibition rate (H9c2 cells; 100 μM, H9c2 cells, n=3): 15.0 ± 2.3%
3 | O=C(/C=C/c1ccc(O)c(O)c1)O[C@@H]1C[C@](O)(C(=O)O)C[C@@H](O)[C@H]1O [Chlorogenic acid] | significantly improve H9c2 cell survival rates |  |  |  |  |  |  |  |  |  |  |  | 1278 ± 171.4 ng·h/mL |  | 394.1 ± 6.271 ng/mL |  |  |  |  |  | EC50 (OGD/R-induced H9c2 cells; Rattus norvegicus): 8.6 µM; concentration at 0.08 h [1, 4]: 66.2 ± 20.1 ng/mL; concentration at 0.17 h [1, 4]: 99.06 ± 0.162 ng/mL; concentration at 0.5 h [1, 4]: 395 ± 7.1 ng/mL; concentration at 1 h [1, 4]: 170 ± 35.7 ng/mL; concentration at 2 h [1, 4]: 77.2 ± 7.26 ng/mL; concentration at 4 h [1, 4]: 68.1 ± 21 ng/mL; concentration at 8 h [1, 4]: 51.4 ± 5.49 ng/mL; concentration at 12 h [1, 4]: 39.1 ± 14.9 ng/mL; AUC [2, 5]: 1420 ng·h/mL; MRT [2, 5]: 7.18 ± 0.978 h; Tmax [2, 5]: 0.563 ± 0.125 h; half-life [2, 5]: 9.22 ± 3.27 h; AUC(0-inf) ([2]; Sprague Dawley, rat, plasma, po, 7 g/kg, AUC0→∞, rat plasma, single oral 7 g/kg QSG, n = 6): 1420 ± 243 ng·h/mL; inhibition at 25 µM (H9c2 cells; Rattus norvegicus, 25 μM, H9c2 cells, n=3, read-out: Inhibition rate): -1.6 ± 4.9%; inhibition at 50 µM (H9c2 cells; Rattus norvegicus, 50 μM, H9c2 cells, n=3, read-out: Inhibition rate): 12 ± 1.7%; inhibition at 100 µM (H9c2 cells; Rattus norvegicus, 100 μM, H9c2 cells, n=3, read-out: Inhibition rate): 15 ± 4.1%
